Results from publication PMC13044524 (Molecular Cancer Therapeutics, 2025).
pIC50: −log10 of the molar value.

Assays:
[1] = tested on: uterine tissue; assay: Rat uterine wet weight assay; type: in vivo, Sprague–Dawley CD-IGS rats; settings: immature rats; for epithelia height of uterine tissue (histologic staining): 3 days, compared with vehicle; for uterine wet weight (UWW): once daily for 3 days
[2] = tested on: MCF-7 cells; assay: Cell proliferation assay, MCF-7; type: cell-based; settings: Homo sapiens, MCF7, 144 h, read-out: IC50 E2-mediated proliferation
[3] = tested on: bone (femur and tibia) of OVX mice; assay: Osteoporosis; type: in vivo, C57BL/6 mice; settings: 12 weeks of treatment

Structure (SMILES): C[C@@H]1Cc2c([nH]c3ccccc23)[C@@H](c2c(F)cc(/C=C/C(=O)O)cc2F)N1CC(C)(C)F [AZD9496, (E)-3-(3,5-Difluoro-4-((1R,3R)-2-(2-fluoro-2-methylpropyl)-3-methyl-2,3,4,9-tetrahydro-1H-pyrido[3,4-b]indol-1-yl)phenyl)acrylic acid]
- epithelia height of uterine tissue (histologic staining) [1]: slightly increased
- uterine wet weight (UWW) [1]: did not affect uterine weight significantly

Structure (SMILES): C[C@]12CC[C@@H]3c4ccc(O)cc4C[C@@H](CCCCCCCCC[S+]([O-])CCCC(F)(F)C(F)(F)F)[C@H]3[C@@H]1CC[C@@H]2O (stereo partly drawn) [Fulvestrant]
- pIC50 [2]: 9.70
- uterine wet weight (UWW) [1]: seemed to decrease uterine weight
- bone mineral density (BMD) of femur and tibia [3]: further decreased BMD

Structure (SMILES): CC/C(=C(\c1ccccc1)c1ccc(OCCN(C)C)cc1)c1ccccc1 [Tamoxifen]
- epithelia height of uterine tissue (histologic staining) [1]: dramatically increased
- uterine wet weight (UWW) [1]: significantly increase UWW
- bone mineral density (BMD) of femur and tibia [3]: significantly increased BMD

Structure (SMILES): CCNCCc1ccc(CN(CC)c2cc(OC)ccc2[C@@H]2CCc3cc(O)ccc3C2)cc1 [elacestrant]
- pIC50 [2]: 9.52
